# Results reported in paper PMC6112376, “Comprehensive Analyses and Prioritization of Tox21 10K Chemicals Affecting Mitochondrial Function by in-Depth Mechanistic Studies” (Environmental Health Perspectives, 2018).
# Where two headings read alike, the source gives them in different places.
# Legend:
# hNSC = assay: MMP assay in human neural stem cells (hNSC); type: cell-based; details: mean±SD of three experiments
# HepG2 cells [1] = assay: ROS-Glo hydrogen peroxide (ROS) assay; type: cell-based, human; details: 2 h treatment; mean±SD of three experiments
# HepG2 cells [2] = assay: Intracellular ATP content (cell viability) assay; type: cell-based, human; details: for IC50: 40 h treatment, mean±SD of three experiments
# [3] = tested on: p53 (p53-bla HCT-116 cells); assay: p53 β-lactamase reporter gene assay; type: cell-based, human; details: 16 h incubation; mean±SD of three experiments
# [4] = tested on: Nrf2/ARE (ARE-bla HepG2 cells); assay: ARE β-lactamase reporter gene assay; type: cell-based, human
# [5] = tested on: isolated rat liver mitochondria; assay: Oxygen consumption, Clark-type oxygen electrode; type: biochemical; details: for I-ADP, % of control (O2 consumption rate): glutamate/malate driven state 3 respiration; for I-ADP, % of control (O2 consumption rate) / I-sub, % of control (O2 consumption rate) / II-ADP, % of control (O2 consumption rate) / II-sub, % of control (O2 consumption rate): isolated rat liver mitochondria; for I-sub, % of control (O2 consumption rate): glutamate/malate driven state 4 respiration; for II-ADP, % of control (O2 consumption rate): succinate-driven state 3 respiration; for II-sub, % of control (O2 consumption rate): succinate-driven state 4 respiration
# HepG2 cells [6] = assay: Oxygen consumption, Seahorse XF24 analyzer; type: cell-based, human
# [7] = tested on: mitochondrial respiratory chain complex I; type: biochemical, rat
# [8] = target: T1, mitochondrial respiratory chain complex II (Rattus norvegicus, UniProt P21913+Q641Z9+Q6PCT8+Q920L2); assay: Respiratory chain complex II activity; type: biochemical; details: tested up to 100μM
# T1 construct: Submitochondrial particles were prepared by subjecting the intact rat mitochondria, isolated as described above, to three successive freeze–thaw cycles; from tissue; host or cells: rat liver mitochondria (submitochondrial particles)
# [9] = tested on: mitochondrial respiratory chain complex III; type: biochemical, rat
# [10] = tested on: mitochondrial respiratory chain complex IV; type: biochemical, rat
# [11] = tested on: mitochondrial respiratory chain complex V; type: biochemical, rat
# [12] = tested on: HeLa cells expressing YFP-Parkin; assay: Parkin translocation assay; type: cell-based, human
# HepG2 cells [13] = tested on: HepG2 cells
# HepG2 cells [14] = details: cited from earlier work
# [15] = tested on: Caenorhabditis elegans strain PE255; assay: In vivo C. elegans ATP status assay
# rat primary hepatocytes = assay: MMP assay in rat primary hepatocytes
# [16] = tested on: Caenorhabditis elegans (Bristol N2); assay: C. elegans larval development and growth assay
# T1 sequence (Q920L2 35-656): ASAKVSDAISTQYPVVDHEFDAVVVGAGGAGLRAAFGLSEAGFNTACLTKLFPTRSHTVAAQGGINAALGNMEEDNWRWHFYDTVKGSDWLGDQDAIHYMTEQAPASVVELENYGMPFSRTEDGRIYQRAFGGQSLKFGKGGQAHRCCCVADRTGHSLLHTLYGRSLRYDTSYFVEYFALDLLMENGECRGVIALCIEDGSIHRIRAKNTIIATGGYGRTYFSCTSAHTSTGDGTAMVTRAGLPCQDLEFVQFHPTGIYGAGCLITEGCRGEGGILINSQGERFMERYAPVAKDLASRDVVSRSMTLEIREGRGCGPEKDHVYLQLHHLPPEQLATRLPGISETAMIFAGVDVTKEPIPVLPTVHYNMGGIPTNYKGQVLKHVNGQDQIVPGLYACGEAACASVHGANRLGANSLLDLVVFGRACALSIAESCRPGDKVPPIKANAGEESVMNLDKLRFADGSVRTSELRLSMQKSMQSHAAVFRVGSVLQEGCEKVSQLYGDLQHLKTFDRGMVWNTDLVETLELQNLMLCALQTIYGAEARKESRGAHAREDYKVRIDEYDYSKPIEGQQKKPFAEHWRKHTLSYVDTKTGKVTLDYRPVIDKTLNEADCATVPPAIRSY
# T1 sequence (P21913 31-282): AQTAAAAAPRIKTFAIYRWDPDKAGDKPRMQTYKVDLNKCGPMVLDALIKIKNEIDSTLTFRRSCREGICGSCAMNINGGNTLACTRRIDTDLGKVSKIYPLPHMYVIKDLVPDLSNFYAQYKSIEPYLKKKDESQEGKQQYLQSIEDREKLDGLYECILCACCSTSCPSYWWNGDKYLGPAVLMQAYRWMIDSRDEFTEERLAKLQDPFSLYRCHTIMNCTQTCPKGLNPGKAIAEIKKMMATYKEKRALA
# T1 sequence (Q641Z9 1-169): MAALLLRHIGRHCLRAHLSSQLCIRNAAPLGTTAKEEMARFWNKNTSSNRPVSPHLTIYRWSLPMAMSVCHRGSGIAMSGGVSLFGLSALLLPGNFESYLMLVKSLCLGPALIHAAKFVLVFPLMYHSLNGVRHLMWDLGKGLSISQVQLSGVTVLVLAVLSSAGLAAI
# T1 sequence (Q6PCT8 57-159): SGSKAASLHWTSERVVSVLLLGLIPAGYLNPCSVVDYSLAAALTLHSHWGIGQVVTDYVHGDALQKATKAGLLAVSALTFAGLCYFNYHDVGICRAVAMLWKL
compound,measurement,setting,value
CCN1C(=CC=Cc2ccc3ccccc3[n+]2CC)C=Cc2ccccc21.[Cl-] [Pinacyanol chloride],IC50,"hNSC; 1 h treatment, fresh re-sourced stocks, read-out: hNSC IC50 (MMP)",40 ± 10 nM
same,hNSC (efficacy) (MMP),hNSC; % of positive control,−97.1±7.31%
same,ROS (HepG2) EC50,HepG2 cells [1],Inactive
same,IC50,"HepG2 cells [2]; 5 mM glucose, read-out: ATP (HepG2, glucose) IC50",10.7 ± 6.39 µM
same,"ATP (HepG2, glucose) (efficacy)","HepG2 cells [2]; 5 mM glucose, % of positive control",−107±6.73%
same,IC50,"HepG2 cells [2]; 10 mM galactose, read-out: ATP (HepG2, galactose) IC50",5.88 ± 2.33 µM
same,"ATP (HepG2, galactose) (efficacy)","HepG2 cells [2]; 10 mM galactose, % of positive control",−105±4.87%
same,p53 (HCT-116) EC50,[3],Inactive
same,EC50,"[4]; 16 h incubation, mean±SD of three experiments, read-out: ARE (HepG2) EC50",1390 ± 950 nM
same,ARE (HepG2) (efficacy),[4]; % of positive control,62.8±13.4%
same,"I-ADP, % of control (O2 consumption rate)",[5]; 0.8 µM,88 (40.4) % of control
same,"I-sub, % of control (O2 consumption rate)",[5]; 0.8 µM,113 (12.6) % of control
same,"II-ADP, % of control (O2 consumption rate)",[5]; 0.8 µM,81 (60.9) % of control
same,"II-sub, % of control (O2 consumption rate)",[5]; 0.8 µM,103 (21.3) % of control
same,"I-ADP, % of control (O2 consumption rate)",[5]; 4 µM,57 (26.1) % of control
same,"I-sub, % of control (O2 consumption rate)",[5]; 4 µM,108 (12.1) % of control
same,"II-ADP, % of control (O2 consumption rate)",[5]; 4 µM,56 (42.3) % of control
same,"II-sub, % of control (O2 consumption rate)",[5]; 4 µM,79 (16.2) % of control
same,"I-ADP, % of control (O2 consumption rate)",[5]; 20 µM,31 (14.2) % of control
same,"I-sub, % of control (O2 consumption rate)",[5]; 20 µM,69 (7.7) % of control
same,"II-ADP, % of control (O2 consumption rate)",[5]; 20 µM,35 (26.2) % of control
same,"II-sub, % of control (O2 consumption rate)",[5]; 20 µM,69 (14.3) % of control
same,"I-ADP, % of control (O2 consumption rate)",[5]; 100 µM,21 (9.7) % of control
same,"I-sub, % of control (O2 consumption rate)",[5]; 100 µM,76 (11.8) % of control
same,"II-ADP, % of control (O2 consumption rate)",[5]; 100 µM,11 (7.6) % of control
same,"II-sub, % of control (O2 consumption rate)",[5]; 100 µM,27 (8.5) % of control
same,effect on mitochondrial respiration (in words),"[5]; Clark-type oxygen electrode, concentrations up to 100μM",slightly milder inhibitory effects on both glutamate/malate-driven respiration and succinate-driven respiration
same,Potential Mechanism,"[5]; mitochondrial respiration in isolated rat liver mitochondria, Clark type oxygen electrode, over tested concentrations",Inhibitor
same,"effect on oxygen consumption rate, Seahorse (in words)",HepG2 cells [6],inhibitory patterns similar to that of rotenone
same,Activity in oxygen consumption,"HepG2 cells [6]; Seahorse XF24, HepG2 cells, 25 mM glucose, 1, 4, 16, and 64μM",Inhibitor
same,inhibition effect on Complex I,[7]; at 4.0μM,23.6%
same,Complex I % inhibition,[7]; at 20μM,38.3±1.92 at 20μM %
same,Complex II % inhibition (activity call),[8],Inactive
same,Complex III % inhibition (activity call),[9],Inactive
same,Complex IV % inhibition (activity call),[10],Inactive
same,Complex V % inhibition (activity call),[11],Inactive
same,Parkin translocation into mitochondria (in words),[12]; 3 h,patterns similar to antimycin A and FCCP
same,Parkin recruitment,"[12]; HeLa cells stably expressing YFP-Parkin, treated for 2 h",Active
same,HepG2 (efficacy) Glucose (MMP),"HepG2 cells [13]; 5 mM glucose, % of positive control, mean±SD of three experiments",−85.9±3.17%
same,HepG2 (efficacy) Galactose (MMP),"HepG2 cells [13]; 10 mM galactose, % of positive control, mean±SD of three experiments",−78.9±0.48%
same,MMP assays efficacy (%) HepG2,"HepG2 cells [13]; HepG2 cells, single number from one experiment",-89%
same,IC50,"HepG2 cells [13]; read-out: HepG2 IC50 Galactose (MMP), 10 mM galactose, no glucose, 1 h treatment, mean±SD of three experiments",0.06 ± 0.02 µM
same,IC50,"HepG2 cells [13]; read-out: HepG2 IC50 Glucose (MMP), 5 mM glucose, 1 h treatment, fresh re-sourced stocks, mean±SD of three experiments",0.04 ± 0.01 µM
same,IC50,"HepG2 cells [13]; read-out: IC50 in HepG2 cells (MMP, tier-one retest), existing Tox21 10K library stock solutions, Excel Table S1",0.02 µM
same,IC50,"HepG2 cells [13]; read-out: MMP assays IC50 (µM) HepG2, HepG2 cells, single number from one experiment",0.0155 µM
same,MMP assays efficacy (%) qHTS-HepG2,HepG2 cells [14],-91±3%
same,IC50,"HepG2 cells [14]; read-out: MMP assays IC50 (µM), qHTS-HepG2",0.01 µM
same,LUM: mean difference in luminescence (ATP content) relative to plate controls,[15]; 0.005 µM,0.1466
same,LUM: mean difference in luminescence (ATP content) relative to plate controls,[15]; 0.01 µM,0.1001
same,LUM: mean difference in luminescence (ATP content) relative to plate controls,[15]; 0.05 µM,0.1404
same,LUM: mean difference in luminescence (ATP content) relative to plate controls,[15]; 0.1 µM,0.3228
same,LUM: mean difference in luminescence (ATP content) relative to plate controls,[15]; 0.5 µM,1.055
same,LUM: mean difference in luminescence (ATP content) relative to plate controls,[15]; 1 µM,-0.08665
same,LUM: mean difference in luminescence (ATP content) relative to plate controls,[15]; 5 µM,3.898
same,LUM: mean difference in luminescence (ATP content) relative to plate controls,[15]; 10 µM,3.595
same,LUM: mean difference in luminescence (ATP content) relative to plate controls,[15]; 25 µM,3.9673
same,LUM: mean difference in luminescence (ATP content) relative to plate controls,[15]; 50 µM,3.294
same,LUM: mean difference in luminescence (ATP content) relative to plate controls,[15]; 75 µM,3.822
same,LUM: mean difference in luminescence (ATP content) relative to plate controls,[15]; 100 µM,4.216
same,effect on ATP content (in words),"[15]; 0.5–100μM, 24 h exposure",inhibited
same,"LEC LUM: lowest effect concentration for luminescence, a measure of nematode ATP content","[15]; C. elegans ATP, JT trend test, Bonferoni correction p<0.05",0.25 µM
same,Rat hepatocytes (efficacy) (MMP),"rat primary hepatocytes; % of positive control, mean±SD of three experiments",−75.4±6.24%
same,MMP assays efficacy (%) Rat Hepatocytes,"rat primary hepatocytes; rat hepatocytes, mean ± SD of three experiments",-99±26%
same,IC50,"rat primary hepatocytes; read-out: IC50 in rat primary hepatocytes (MMP, tier-one retest), existing Tox21 10K library stock solutions, 1-h treatment, Excel Table S1",40 nM
same,IC50,"rat primary hepatocytes; read-out: Rat hepatocytes IC50 (MMP), 1 h treatment, fresh re-sourced stocks, mean±SD of three experiments",310 ± 150 nM
same,EXT: mean difference in nematode size relative to plate controls,[16]; 0.005 µM,0.5663
same,EXT: mean difference in nematode size relative to plate controls,[16]; 0.01 µM,0.679
same,EXT: mean difference in nematode size relative to plate controls,[16]; 0.05 µM,1.058
same,EXT: mean difference in nematode size relative to plate controls,[16]; 0.1 µM,0.8774
same,EXT: mean difference in nematode size relative to plate controls,[16]; 0.5 µM,1.355
same,larval growth effect at 0.5μM,"[16]; 0.5μM, 48 h exposure",severe larval growth arrest
same,EXT: mean difference in nematode size relative to plate controls,[16]; 1 µM,1.41
same,EXT: mean difference in nematode size relative to plate controls,[16]; 5 µM,1.888
same,EXT: mean difference in nematode size relative to plate controls,[16]; 10 µM,1.689
same,EXT: mean difference in nematode size relative to plate controls,[16]; 50 µM,0.7889
same,effect on larval growth (in words),"[16]; 0.5–100μM, 48 h exposure",inhibited
same,"LEC EXT: lowest effect concentration for extinction, a measure of nematode size","[16]; C. elegans larval growth, JT trend test, Bonferoni correction p<0.05",0.005 µM
same,inhibitory effect at (concentration) on larval growth in the C. elegans assay,[16]; quoted in Discussion,0.005 µM
